Laboratory results: paper PMC7714403 (JCI Insight, 2020)
Read-outs that look alike come from different tables or passages of the source.

Key:
Assay in all cases: KiNativ, MOLM13 live cells
Format in all cases: cell-based
[1] = molecular target: T1, AurA (Homo sapiens, UniProt O14965); details: MOLM-13, 2 h, 100 nM
T1 sequence (O14965 1-403): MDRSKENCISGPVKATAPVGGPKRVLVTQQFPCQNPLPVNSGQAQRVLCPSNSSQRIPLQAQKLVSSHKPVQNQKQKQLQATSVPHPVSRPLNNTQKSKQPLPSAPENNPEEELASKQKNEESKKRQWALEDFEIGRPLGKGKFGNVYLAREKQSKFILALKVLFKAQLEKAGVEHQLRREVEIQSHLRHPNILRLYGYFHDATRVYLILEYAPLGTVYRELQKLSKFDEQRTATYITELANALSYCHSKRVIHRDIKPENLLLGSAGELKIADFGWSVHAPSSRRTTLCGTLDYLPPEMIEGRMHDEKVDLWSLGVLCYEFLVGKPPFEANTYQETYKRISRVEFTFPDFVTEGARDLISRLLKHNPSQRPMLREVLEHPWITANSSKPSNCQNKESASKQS
Experimental: (§1) Samples were analyzed by KiNativ in situ kinase profiling by ActivX Biosciences.

[2] = molecular target: CCRK (Homo sapiens, UniProt Q8IZL9); details: MOLM-13; 100 nM, 2 hours; Lys2; read-out: Inhibition vs DMSO
Experimental: as §1

[3] = molecular target: CDK9 (Homo sapiens, UniProt P50750); details: MOLM-13; 100 nM, 2 hours; ATP Loop; read-out: Inhibition vs DMSO
Chain of CDK9 (P50750 whole entry): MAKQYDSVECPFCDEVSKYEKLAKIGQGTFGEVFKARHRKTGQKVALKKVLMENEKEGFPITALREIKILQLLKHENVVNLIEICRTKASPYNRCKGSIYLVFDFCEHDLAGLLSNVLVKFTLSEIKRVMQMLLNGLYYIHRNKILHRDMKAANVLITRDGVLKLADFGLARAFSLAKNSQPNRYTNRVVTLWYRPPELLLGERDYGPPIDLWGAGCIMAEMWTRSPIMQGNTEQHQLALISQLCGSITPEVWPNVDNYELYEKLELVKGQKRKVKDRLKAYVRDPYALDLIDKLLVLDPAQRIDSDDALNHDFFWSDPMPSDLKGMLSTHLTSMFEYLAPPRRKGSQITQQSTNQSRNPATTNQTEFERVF
Chain of CDK9 (O60563 whole entry partner): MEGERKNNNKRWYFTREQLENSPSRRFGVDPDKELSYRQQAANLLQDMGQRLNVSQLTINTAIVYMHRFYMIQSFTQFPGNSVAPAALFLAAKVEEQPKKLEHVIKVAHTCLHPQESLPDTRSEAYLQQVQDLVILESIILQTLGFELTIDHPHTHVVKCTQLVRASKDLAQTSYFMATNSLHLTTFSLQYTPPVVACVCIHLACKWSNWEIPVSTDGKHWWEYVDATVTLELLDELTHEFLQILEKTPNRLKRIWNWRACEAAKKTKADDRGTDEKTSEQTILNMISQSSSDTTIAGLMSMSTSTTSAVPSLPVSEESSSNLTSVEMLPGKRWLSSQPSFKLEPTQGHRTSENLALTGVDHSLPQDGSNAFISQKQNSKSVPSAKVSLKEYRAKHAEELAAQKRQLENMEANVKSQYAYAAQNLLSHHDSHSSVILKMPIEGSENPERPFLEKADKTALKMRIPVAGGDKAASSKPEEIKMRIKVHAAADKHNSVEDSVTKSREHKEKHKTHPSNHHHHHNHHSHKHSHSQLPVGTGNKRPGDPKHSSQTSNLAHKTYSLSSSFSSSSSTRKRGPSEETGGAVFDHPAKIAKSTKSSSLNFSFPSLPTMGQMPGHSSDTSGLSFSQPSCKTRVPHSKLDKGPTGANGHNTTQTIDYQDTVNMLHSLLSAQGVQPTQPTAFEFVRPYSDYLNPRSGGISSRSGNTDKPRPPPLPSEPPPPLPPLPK
Experimental: as §1

[4] = molecular target: CSK (Homo sapiens, UniProt P41240); details: 100 nM, 2 hours; Activation Loop
Chain of CSK (P41240 whole entry): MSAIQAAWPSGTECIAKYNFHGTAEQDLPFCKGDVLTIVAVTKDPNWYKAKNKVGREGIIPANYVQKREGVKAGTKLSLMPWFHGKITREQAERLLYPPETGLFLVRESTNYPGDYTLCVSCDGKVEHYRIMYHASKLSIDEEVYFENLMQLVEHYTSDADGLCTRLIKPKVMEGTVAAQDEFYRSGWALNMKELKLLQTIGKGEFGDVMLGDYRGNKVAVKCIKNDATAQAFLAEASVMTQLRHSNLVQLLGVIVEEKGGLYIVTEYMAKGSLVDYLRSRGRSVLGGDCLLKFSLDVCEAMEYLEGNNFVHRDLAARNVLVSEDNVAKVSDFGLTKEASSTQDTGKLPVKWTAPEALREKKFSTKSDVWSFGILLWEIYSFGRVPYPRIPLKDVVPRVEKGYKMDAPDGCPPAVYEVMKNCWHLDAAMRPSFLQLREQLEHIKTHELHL
Experimental: as §1

[5] = molecular target: FRAP (Homo sapiens, UniProt P42345); details: MOLM-13; 100 nM, 2 hours; ATP; read-out: Inhibition vs DMSO
Experimental: as §1

[6] = molecular target: T2, IRAK3 (Homo sapiens, UniProt Q9Y616); details: MOLM-13; 100 nM, 2 hours; Lys1; read-out: Inhibition vs DMSO
T2 sequence (Q9Y616 1-596): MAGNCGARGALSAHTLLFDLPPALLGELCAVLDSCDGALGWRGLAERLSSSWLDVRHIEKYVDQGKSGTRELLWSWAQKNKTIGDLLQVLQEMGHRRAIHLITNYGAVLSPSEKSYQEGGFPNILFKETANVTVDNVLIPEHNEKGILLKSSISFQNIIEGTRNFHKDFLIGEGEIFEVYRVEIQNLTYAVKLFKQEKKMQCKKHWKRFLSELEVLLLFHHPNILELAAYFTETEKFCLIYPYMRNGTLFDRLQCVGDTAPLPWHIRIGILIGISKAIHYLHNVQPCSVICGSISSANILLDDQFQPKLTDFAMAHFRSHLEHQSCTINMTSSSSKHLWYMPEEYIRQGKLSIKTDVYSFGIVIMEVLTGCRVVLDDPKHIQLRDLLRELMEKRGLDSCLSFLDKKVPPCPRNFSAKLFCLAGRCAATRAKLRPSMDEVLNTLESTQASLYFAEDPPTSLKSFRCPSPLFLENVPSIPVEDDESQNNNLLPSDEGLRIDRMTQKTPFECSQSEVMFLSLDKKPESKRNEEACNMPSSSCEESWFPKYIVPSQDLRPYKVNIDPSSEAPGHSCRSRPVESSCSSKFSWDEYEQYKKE
Experimental: as §1

[7] = molecular target: MAP3K4 (Homo sapiens, UniProt Q9Y6R4); details: MOLM-13, 2 h, 100 nM
Chain of MAP3K4 (Q9Y6R4 whole entry): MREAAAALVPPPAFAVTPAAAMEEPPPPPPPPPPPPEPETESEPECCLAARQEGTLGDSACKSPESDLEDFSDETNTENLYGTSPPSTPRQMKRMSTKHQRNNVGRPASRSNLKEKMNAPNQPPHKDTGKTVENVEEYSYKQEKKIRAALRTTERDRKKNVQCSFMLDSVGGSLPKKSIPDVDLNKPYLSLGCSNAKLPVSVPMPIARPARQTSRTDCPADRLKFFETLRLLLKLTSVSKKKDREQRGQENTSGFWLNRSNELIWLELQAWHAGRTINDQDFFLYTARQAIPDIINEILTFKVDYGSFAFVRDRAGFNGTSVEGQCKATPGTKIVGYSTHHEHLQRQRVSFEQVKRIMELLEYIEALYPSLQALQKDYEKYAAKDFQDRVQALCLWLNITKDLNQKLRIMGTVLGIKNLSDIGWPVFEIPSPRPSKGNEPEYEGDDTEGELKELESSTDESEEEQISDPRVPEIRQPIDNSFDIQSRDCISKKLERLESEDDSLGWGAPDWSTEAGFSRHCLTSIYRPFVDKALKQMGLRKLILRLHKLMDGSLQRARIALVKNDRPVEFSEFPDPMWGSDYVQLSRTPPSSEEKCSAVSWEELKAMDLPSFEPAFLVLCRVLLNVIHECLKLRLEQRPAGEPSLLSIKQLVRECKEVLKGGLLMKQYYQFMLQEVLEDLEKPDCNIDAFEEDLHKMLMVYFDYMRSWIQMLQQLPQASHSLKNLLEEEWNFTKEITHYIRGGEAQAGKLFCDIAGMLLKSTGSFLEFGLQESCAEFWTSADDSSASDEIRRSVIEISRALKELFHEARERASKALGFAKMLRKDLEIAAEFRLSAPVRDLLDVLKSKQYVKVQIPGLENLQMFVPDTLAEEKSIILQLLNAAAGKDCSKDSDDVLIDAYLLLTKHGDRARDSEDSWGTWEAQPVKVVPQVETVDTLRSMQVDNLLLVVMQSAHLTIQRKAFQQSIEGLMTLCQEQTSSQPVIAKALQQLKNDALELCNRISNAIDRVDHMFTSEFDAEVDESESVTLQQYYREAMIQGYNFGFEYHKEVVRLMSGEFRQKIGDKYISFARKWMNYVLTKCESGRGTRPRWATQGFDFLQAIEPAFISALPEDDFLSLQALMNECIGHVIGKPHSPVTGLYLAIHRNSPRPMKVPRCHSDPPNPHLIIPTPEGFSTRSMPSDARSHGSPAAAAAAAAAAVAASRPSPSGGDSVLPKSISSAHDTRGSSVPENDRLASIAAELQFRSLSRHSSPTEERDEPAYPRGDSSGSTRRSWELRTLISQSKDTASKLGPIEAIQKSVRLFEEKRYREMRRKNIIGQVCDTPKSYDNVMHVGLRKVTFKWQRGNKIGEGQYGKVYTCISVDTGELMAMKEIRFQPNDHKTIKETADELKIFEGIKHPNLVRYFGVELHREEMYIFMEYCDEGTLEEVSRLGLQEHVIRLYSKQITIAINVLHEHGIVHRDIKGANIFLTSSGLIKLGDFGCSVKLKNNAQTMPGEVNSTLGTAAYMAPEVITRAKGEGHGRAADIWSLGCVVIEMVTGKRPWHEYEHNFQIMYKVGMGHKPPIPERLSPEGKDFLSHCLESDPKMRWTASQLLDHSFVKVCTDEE
Experimental: as §1

[8] = molecular target: NEK7 (Homo sapiens, UniProt Q8TDX7); details: MOLM-13; 100 nM, 2 hours; Lys1; read-out: Inhibition vs DMSO
Chain of NEK7 (Q8TDX7 whole entry): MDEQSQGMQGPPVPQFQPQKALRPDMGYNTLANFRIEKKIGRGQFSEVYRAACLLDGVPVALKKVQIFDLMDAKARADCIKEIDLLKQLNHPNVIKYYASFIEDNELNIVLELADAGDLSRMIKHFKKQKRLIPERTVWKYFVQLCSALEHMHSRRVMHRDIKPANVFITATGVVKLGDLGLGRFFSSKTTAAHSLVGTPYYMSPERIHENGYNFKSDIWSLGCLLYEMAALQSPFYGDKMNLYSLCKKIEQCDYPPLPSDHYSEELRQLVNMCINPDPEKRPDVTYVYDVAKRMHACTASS
Experimental: as §1

[9] = molecular target: NLK (Homo sapiens, UniProt Q9UBE8); details: MOLM-13; 100 nM, 2 hours; Lys2; read-out: Inhibition vs DMSO
Experimental: as §1

[10] = molecular target: RSKL1 (Homo sapiens, UniProt Q96S38); details: MOLM-13; 100 nM, 2 hours; ATP; read-out: Inhibition vs DMSO
Chain of RSKL1 (Q96S38 whole entry): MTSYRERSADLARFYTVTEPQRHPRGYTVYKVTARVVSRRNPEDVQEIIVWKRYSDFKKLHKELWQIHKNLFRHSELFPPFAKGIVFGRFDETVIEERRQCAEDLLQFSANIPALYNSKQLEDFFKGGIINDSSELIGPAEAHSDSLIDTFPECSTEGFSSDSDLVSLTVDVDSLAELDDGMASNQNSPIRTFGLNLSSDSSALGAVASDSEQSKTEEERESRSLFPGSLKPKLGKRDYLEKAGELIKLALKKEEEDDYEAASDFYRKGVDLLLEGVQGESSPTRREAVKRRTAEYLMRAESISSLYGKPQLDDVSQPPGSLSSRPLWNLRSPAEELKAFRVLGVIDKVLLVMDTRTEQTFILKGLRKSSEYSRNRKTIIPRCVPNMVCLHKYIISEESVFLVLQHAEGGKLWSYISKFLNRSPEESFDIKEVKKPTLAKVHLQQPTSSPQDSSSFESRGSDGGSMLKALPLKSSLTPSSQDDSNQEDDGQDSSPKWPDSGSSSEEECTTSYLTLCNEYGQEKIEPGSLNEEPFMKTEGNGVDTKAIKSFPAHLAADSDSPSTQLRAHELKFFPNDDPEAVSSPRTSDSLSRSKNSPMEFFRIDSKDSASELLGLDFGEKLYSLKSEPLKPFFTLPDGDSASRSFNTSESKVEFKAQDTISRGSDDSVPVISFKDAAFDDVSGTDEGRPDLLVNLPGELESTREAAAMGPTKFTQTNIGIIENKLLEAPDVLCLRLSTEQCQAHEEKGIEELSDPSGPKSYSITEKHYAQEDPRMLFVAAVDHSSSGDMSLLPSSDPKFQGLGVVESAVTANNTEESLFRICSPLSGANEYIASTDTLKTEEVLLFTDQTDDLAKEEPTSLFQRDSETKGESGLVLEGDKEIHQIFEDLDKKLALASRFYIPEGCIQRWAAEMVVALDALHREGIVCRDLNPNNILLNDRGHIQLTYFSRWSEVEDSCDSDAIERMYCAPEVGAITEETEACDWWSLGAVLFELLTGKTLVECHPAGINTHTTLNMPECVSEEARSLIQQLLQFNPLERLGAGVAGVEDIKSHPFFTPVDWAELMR
Experimental: as §1

[11] = molecular target: T3, TLK1 (Homo sapiens, UniProt Q9UKI8); details: MOLM-13; 100 nM, 2 hours; Lys2; read-out: Inhibition vs DMSO
T3 sequence (Q9UKI8 1-766): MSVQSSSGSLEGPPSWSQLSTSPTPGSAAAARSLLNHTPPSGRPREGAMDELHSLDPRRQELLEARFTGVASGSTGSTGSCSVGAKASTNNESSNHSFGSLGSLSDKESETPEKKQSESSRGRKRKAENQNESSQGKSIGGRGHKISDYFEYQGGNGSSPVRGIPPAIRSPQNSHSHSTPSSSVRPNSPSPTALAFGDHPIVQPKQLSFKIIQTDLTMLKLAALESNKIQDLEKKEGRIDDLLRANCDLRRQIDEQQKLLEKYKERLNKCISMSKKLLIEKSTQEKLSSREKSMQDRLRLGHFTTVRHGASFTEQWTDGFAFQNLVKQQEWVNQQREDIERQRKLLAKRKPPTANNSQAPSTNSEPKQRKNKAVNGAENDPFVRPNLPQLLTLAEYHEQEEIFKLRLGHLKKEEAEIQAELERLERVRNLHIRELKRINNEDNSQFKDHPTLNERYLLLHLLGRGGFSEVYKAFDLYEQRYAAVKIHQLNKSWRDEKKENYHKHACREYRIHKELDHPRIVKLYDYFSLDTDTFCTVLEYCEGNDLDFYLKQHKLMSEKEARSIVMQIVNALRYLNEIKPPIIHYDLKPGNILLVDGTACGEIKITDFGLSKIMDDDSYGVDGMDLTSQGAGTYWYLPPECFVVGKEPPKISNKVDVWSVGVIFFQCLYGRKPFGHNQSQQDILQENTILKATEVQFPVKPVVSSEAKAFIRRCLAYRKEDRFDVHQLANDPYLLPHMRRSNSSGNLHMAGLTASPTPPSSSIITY
Experimental: as §1

[12] = molecular target: TLK2 (Homo sapiens, UniProt Q86UE8); details: MOLM-13; 100 nM, 2 hours; Lys2; read-out: Inhibition vs DMSO
Experimental: as §1

[13] = molecular target: p70S6Kb (Homo sapiens, UniProt Q9UBS0); details: MOLM-13, 2 h, 100 nM
Chain of p70S6Kb (Q9UBS0 whole entry): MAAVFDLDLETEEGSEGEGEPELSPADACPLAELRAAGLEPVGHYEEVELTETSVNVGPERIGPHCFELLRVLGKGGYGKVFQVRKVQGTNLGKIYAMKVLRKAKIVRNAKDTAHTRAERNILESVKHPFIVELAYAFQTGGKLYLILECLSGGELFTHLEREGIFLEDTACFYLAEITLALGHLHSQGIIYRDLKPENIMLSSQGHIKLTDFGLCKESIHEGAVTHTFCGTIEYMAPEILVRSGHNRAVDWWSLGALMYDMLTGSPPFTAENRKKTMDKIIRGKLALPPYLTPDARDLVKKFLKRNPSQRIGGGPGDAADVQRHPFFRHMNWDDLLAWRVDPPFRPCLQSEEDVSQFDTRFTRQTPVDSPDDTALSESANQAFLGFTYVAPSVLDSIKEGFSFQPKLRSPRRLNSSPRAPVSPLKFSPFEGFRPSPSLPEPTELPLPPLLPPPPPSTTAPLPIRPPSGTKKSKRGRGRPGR
Experimental: as §1

[14] = Lys1, read-out: Inhibition vs DMSO
[15] = Lys2, read-out: Inhibition vs DMSO

## CN1CCN(Cc2ccc(Nc3ncc(Cl)c(Nc4ccccc4S(=O)(=O)N(C)C)n3)cc2)CC1 [TP-0903]
[1]; [14]
  inhibition at 0.1 µM: 58.2%
[1]; [15]
  inhibition at 0.1 µM: 59.4%
[2]
  inhibition at 0.1 µM: 68.3%
[3]
  inhibition at 0.1 µM: -34.4%
[4]
  Inhibition vs DMSO: -5.0%
[5]
  inhibition at 0.1 µM: -9.8%
[6]
  inhibition at 0.1 µM: 92.5%
[7]; [14]
  inhibition at 0.1 µM: 8.8%
[7]; [15]
  inhibition at 0.1 µM: 6.6%
[8]
  inhibition at 0.1 µM: -26%
[9]
  inhibition at 0.1 µM: -30.4%
[10]
  inhibition at 0.1 µM: -8.3%
[11]
  inhibition at 0.1 µM: 16%
[12]
  inhibition at 0.1 µM: 18%
[13]; [14]
  inhibition at 0.1 µM: 10.1%
[13]; [15]
  inhibition at 0.1 µM: -12.6%
